Holding throughout (assay type): ADME, organism-based
Data set [1] has as its system Plasma. The data set is described as follows: Drug uptake in Sprague-Dawley rat plasma at 50 mg/kg, po administered through gavage by LC-DAD-IT-TOF-MS analysis. Details: dose 50 mg/kg, route oral; call rule not given here. The following applies: in vivo.
Data set [2] is described as follows: Drug excretion in Sprague-Dawley rat urine at 50 mg/kg, po administered through gavage by LC-DAD-IT-TOF-MS analysis. The following applies: in vivo. Details: dose 50 mg/kg, route oral.
The species entered for data set [3] is Rattus norvegicus. The experiment in a line: Drug metabolism in Sprague-Dawley rat assessed as retention time by LC-DAD-IT-TOF-MS analysis.
Data set [4] is described as follows: Drug excretion in Sprague-Dawley rat feces assessed as metabolite 3-keto-saikogenin f level at 15 mg/kg, iv by LC-DAD-IT-TOF-MS analysis. Details: dose 15 mg/kg, route intravenous. As to conditions: in vivo.
The test system of data set [5] is Plasma. The experiment in a line: Drug metabolism in Sprague-Dawley rat plasma assessed as metabolite delta1-saikogenin f formation at 15 mg/kg, iv by LC-DAD-IT-TOF-MS analysis. Details: dose 15 mg/kg, route intravenous. As to conditions: in vivo.
Data set [6] is described as follows: Drug excretion in Sprague-Dawley rat urine assessed as metabolite saikogenin f-27-oic acid level at 15 mg/kg, iv by LC-DAD-IT-TOF-MS analysis. Details: dose 15 mg/kg, route intravenous. The following applies: in vivo.
Data set [7] is described as follows: Drug excretion in Sprague-Dawley rat bile assessed as metabolite prosaikogenin f level at 50 mg/kg, po administered through gavage by LC-DAD-IT-TOF-MS analysis. Details: dose 50 mg/kg, route oral. As to conditions: in vivo.
Data set [8] concerns Plasma. The experiment in a line: Drug metabolism in Sprague-Dawley rat plasma assessed as metabolite saikogenin f formation at 50 mg/kg, po administered through gavage by LC-DAD-IT-TOF-MS analysis. Details: dose 50 mg/kg, route oral. The following applies: in vivo.
The nature of data set [9]: Drug excretion in Sprague-Dawley rat bile assessed as metabolite saikogenin f level at 50 mg/kg, po administered through gavage by LC-DAD-IT-TOF-MS analysis. Details: dose 50 mg/kg, route oral. As to conditions: in vivo.
Data set [10] can be described thus: Drug excretion in Sprague-Dawley rat urine assessed as metabolite saikogenin f level at 50 mg/kg, po administered through gavage by LC-DAD-IT-TOF-MS analysis. Details: dose 50 mg/kg, route oral. The following applies: in vivo.
For data set [11], the system named is Plasma. The data set is described as follows: Drug metabolism in Sprague-Dawley rat plasma assessed as metabolite 3-keto-saikogenin f formation at 50 mg/kg, po administered through gavage by LC-DAD-IT-TOF-MS analysis. Details: dose 50 mg/kg, route oral. The following applies: in vivo.
Data set [12] in a line: Drug excretion in Sprague-Dawley rat urine assessed as metabolite delta1-saikogenin f level at 50 mg/kg, po administered through gavage by LC-DAD-IT-TOF-MS analysis. Details: dose 50 mg/kg, route oral. As to conditions: in vivo.
Data set [13] in a line: Drug excretion in Sprague-Dawley rat feces assessed as metabolite delta1-saikogenin f level at 50 mg/kg, po administered through gavage by LC-DAD-IT-TOF-MS analysis. Details: dose 50 mg/kg, route oral. The following applies: in vivo.
A short description of data set [14]: Drug excretion in Sprague-Dawley rat bile assessed as metabolite saikogenin f-27-oic acid level at 50 mg/kg, po administered through gavage by LC-DAD-IT-TOF-MS analysis. Details: dose 50 mg/kg, route oral. The following applies: in vivo.
Data set [15] in a line: Drug excretion in Sprague-Dawley rat feces assessed as metabolite saikogenin f-27-oic acid level at 50 mg/kg, po administered through gavage by LC-DAD-IT-TOF-MS analysis. Details: dose 50 mg/kg, route oral. As to conditions: in vivo.
A short description of data set [16]: Drug excretion in Sprague-Dawley rat feces at 15 mg/kg, iv by LC-DAD-IT-TOF-MS analysis. As to conditions: in vivo. Details: dose 15 mg/kg, route intravenous.
The nature of data set [17]: Drug excretion in Sprague-Dawley rat urine assessed as metabolite hydroxysaikosaponin a level at 15 mg/kg, iv by LC-DAD-IT-TOF-MS analysis. Details: dose 15 mg/kg, route intravenous. As to conditions: in vivo.
For data set [18], the system named is Plasma. The experiment in a line: Drug metabolism in Sprague-Dawley rat plasma assessed as metabolite prosaikogenin f formation at 15 mg/kg, iv by LC-DAD-IT-TOF-MS analysis. As to conditions: in vivo. Details: dose 15 mg/kg, route intravenous.
The nature of data set [19]: Drug excretion in Sprague-Dawley rat feces assessed as metabolite prosaikogenin f level at 15 mg/kg, iv by LC-DAD-IT-TOF-MS analysis. Details: dose 15 mg/kg, route intravenous. The following applies: in vivo.
A short description of data set [20]: Drug excretion in Sprague-Dawley rat bile assessed as metabolite 3-keto-saikogenin f level at 15 mg/kg, iv by LC-DAD-IT-TOF-MS analysis. Details: dose 15 mg/kg, route intravenous. The following applies: in vivo.

Each structure is given as a SMILES string.

In the case of `C[C@H]1O[C@@H](O[C@H]2CC[C@@]3(C)[C@@H](CC[C@]4(C)[C@@H]3C=C[C@]35OC[C@@]6(CCC(C)(C)C[C@H]63)[C@@H](O)C[C@]54C)[C@]2(C)CO)[C@H](O)[C@@H](O[C@@H]2O[C@H](CO)[C@@H](O)[C@H](O)[C@H]2O)[C@H]1O` [SAIKOSAPONIN A], the Drug uptake entry in data set [1] was “Active”. The Drug excretion entry in [2] was “metabolite_detected”; in [4], “metabolite_not_detected”; in data set [6], “metabolite_not_detected”; in data set [7], “metabolite_detected”; in [9], “metabolite_not_detected”; in data set [10], “metabolite_detected”. Moreover, the Drug excretion entry in data set [12] was “metabolite_detected”; in data set [13], “metabolite_detected”; in data set [14], “metabolite_not_detected”; in data set [15] it was “metabolite_detected”; in [16], “metabolite_not_detected”; in data set [17] it was “metabolite_not_detected”. The Drug excretion result is listed as “metabolite_detected” in [19] and “metabolite_not_detected” in [20]. Moreover, the Retention_time in data set [3] stood at 39.9 min. Moreover, the Drug metabolism result in data set [5] was “metabolite_not_detected”; in [8], “metabolite_not_detected”; in data set [11], “metabolite_not_detected”; in data set [18], “metabolite_detected”.

The record behind these values is ChEMBL document CHEMBL3525998, “Metabolism of saikosaponin a in rats: diverse oxidations on the aglycone moiety in liver and intestine in addition to hydrolysis of glycosidic bonds” (Drug Metab Dispos, 2013).
